The record followed here is ChEMBL document CHEMBL4602685, “Yanhusanines A-F, Isoquinoline-Derived Alkaloid Enantiomers from Corydalis yanhusuo and Their Biological Activity” (J Nat Prod, 2020).

A word on the IC50: it is the midpoint of a concentration-inhibition curve.

One assay deals with HCT-8. Description: Cytotoxicity against human HCT8 cells assessed as reduction in cell viability after 24 hrs by MTT assay. The assay is classed as functional, cell-based.
Another assay deals with A2780. The assay is described as follows: Cytotoxicity against human A2780 cells assessed as reduction in cell viability after 24 hrs by MTT assay. The assay is classed as functional, cell-based.
The test system of assay [1] is Mycolicibacterium smegmatis. Description: Antimicrobial activity against Mycobacterium smegmatis MC2155 […] assessed as reduction in microbial growth after 24 hrs by CLSI based broth microdilution method. The class given is functional, organism-based. Background: Dilution methods test growth across graded concentrations, often in twofold steps.
Another assay relates to Bel-7402. The assay is described as follows: Cytotoxicity against human Bel7402 cells assessed as reduction in cell viability after 24 hrs by MTT assay. The assay is classed as functional, cell-based. On the technique in general: Tetrazolium dyes change colour on reduction, which living cells bring about.
The subject of a further assay is HepG2. Description: Cytoprotection activity in human HepG2 cells assessed as reduction in acetaminophen-induced cell injury after 48 hrs by MTT assay. The assay is classed as functional, cell-based.
The next assay has as its target T1, Liver carboxylesterase 1 (Homo sapiens, UniProt P23141).
T1 sequence (P23141 whole entry): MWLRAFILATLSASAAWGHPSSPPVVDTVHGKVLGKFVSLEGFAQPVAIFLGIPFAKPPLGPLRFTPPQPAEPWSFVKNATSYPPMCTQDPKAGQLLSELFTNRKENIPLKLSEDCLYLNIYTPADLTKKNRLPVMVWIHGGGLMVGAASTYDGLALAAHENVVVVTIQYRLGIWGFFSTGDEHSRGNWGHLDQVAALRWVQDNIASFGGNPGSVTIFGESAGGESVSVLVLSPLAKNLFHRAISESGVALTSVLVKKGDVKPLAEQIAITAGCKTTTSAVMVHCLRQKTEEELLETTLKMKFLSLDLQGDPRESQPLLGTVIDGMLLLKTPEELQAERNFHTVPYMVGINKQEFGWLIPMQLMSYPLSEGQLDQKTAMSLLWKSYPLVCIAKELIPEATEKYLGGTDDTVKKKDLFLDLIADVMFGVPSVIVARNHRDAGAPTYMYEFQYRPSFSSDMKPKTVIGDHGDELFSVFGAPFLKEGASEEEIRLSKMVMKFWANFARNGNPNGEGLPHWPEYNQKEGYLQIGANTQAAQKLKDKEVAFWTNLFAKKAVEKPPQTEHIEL
The assay is described as follows: Inhibition of human CE1 using D-luciferin methyl ester as substrate preincubated for 10 mins followed by substrate addition and measured after 10 mins by luminescence assay.

The species named for the next assay is Homo sapiens. Description: Selectivity ratio of IC50 for inhibition of human CE1 […].
In a further assay the test system is Staphylococcus aureus. Description: Antimicrobial activity against Staphylococcus aureus ATCC 25923 assessed as reduction in microbial growth after 24 hrs by CLSI based broth microdilution method. The class given is functional, organism-based.
In another assay the test system is Escherichia coli. Description: Antimicrobial activity against Escherichia coli ATCC 25922 assessed as reduction in microbial growth after 24 hrs by CLSI based broth microdilution method. The assay is classed as functional, organism-based.
Assay [2] concerns Staphylococcus epidermidis. Description: Antimicrobial activity against Staphylococcus epidermidis ATCC 12228 assessed as reduction in microbial growth after 24 hrs by CLSI based broth microdilution method. The assay is classed as functional, organism-based.
Assay [3] addresses T2, Tyrosine-protein phosphatase non-receptor type 1 (Homo sapiens) (UniProt P18031).
T2 sequence (whole entry): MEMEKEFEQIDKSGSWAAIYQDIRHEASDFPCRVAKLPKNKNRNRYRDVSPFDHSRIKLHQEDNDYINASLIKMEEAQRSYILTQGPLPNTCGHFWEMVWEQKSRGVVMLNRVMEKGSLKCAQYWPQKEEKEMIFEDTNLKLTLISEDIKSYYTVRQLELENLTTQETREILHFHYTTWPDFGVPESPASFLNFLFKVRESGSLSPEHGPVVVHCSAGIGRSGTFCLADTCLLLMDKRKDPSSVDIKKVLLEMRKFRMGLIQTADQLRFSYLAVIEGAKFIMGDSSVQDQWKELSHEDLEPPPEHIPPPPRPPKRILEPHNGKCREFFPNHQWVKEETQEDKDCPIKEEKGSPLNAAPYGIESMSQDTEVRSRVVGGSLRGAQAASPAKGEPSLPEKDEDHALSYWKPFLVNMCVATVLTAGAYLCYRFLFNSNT
Description: Inhibition of recombinant human GST-tagged PTP1B using para-nitrophenyl phosphate as substrate incubated for 10 mins by spectrophotometric method.

In another assay the test system is BGC-823. The assay is described as follows: Cytotoxicity against human BGC823 cells assessed as reduction in cell viability after 24 hrs by MTT assay. The assay is classed as functional, cell-based.
A further assay has as its system Peritoneal macrophage. The assay is described as follows: Antiinflammatory activity in C57BL/6J mouse Peritoneal macrophages assessed as reduction in LPS-induced TNFalpha secretion after 24 hrs. The class given is functional, cell-based.
The subject of a further assay is A549. The assay is described as follows: Cytotoxicity against human A549 cells assessed as reduction in cell viability after 24 hrs by MTT assay. The class given is functional, cell-based.
Another assay deals with T3, Cocaine esterase (Homo sapiens, UniProt O00748).
T3 sequence (O00748 whole entry): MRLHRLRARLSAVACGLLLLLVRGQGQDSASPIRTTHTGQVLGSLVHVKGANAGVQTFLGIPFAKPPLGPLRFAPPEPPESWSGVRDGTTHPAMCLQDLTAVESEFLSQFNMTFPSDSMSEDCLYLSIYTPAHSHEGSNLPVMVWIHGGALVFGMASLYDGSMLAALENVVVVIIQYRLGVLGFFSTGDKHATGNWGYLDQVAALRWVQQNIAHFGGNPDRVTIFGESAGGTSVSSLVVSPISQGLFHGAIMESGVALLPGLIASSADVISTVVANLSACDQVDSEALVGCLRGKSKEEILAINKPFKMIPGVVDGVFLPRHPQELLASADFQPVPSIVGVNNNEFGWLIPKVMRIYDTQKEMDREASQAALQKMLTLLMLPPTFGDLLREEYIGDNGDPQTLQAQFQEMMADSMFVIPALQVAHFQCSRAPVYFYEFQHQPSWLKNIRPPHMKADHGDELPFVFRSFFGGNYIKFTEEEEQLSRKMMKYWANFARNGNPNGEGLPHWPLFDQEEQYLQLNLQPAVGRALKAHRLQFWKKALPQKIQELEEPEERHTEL
The assay is described as follows: Inhibition of human CE2 using fluorescein diacetate as substrate preincubated for 10 mins followed by substrate addition and measured after 10 mins by luminescence assay.

Activity calls are given as the source filed them. The rule behind the calls is not given here. A value given as a limit tells only on which side of the number the result lay.

For the compound `COc1cc2ccnc([C@]3(C)OC(=O)c4c3ccc(OC)c4OC)c2cc1OC`, the outcome (with HCT-8; with A2780; in assay [1]; with Bel-7402; with HepG2; with Staphylococcus aureus) was inactive. For the same compound, the result (in the assay with Escherichia coli; in [2]; with BGC-823; in the assay with Peritoneal macrophage; in the assay with A549) was inactive. Besides, the results for the IC50 at Liver carboxylesterase 1 and at Cocaine esterase were greater than 100 µM and 3.5 µM, respectively. The Ratio IC50 in the assay listed under Homo sapiens turned out to be 28.9. Also, in [3], the inhibition result was “inactive”.

For `COc1cc2c(cc1OC)C([C@](C)(OC)c1ccc(OC)c(OC)c1O)=NCC2`, the outcome (with HCT-8; in the assay on A2780; in assay [1]; with Bel-7402; in the assay on HepG2; with Staphylococcus aureus) was inactive. In addition, the outcome (in the assay with Escherichia coli; in [2]; in the assay on BGC-823; in the assay with Peritoneal macrophage; in the assay with A549) was inactive. Besides, the IC50 against Liver carboxylesterase 1 is greater than 100 µM; against Cocaine esterase it was 5 µM. In the assay listed under Homo sapiens, the Ratio IC50 stood at 20. Besides, in assay [3], the inhibition result is “inactive”.

As for `COc1cc2cc[n+]3c(c2cc1OC)[C@@](C)(O)c1ccc(OC)c(OC)c1C3`, the outcome (with HCT-8; with A2780; in [1]; with Bel-7402; with HepG2; in the assay on Staphylococcus aureus) was inactive. Besides, the result (in the assay on Escherichia coli; in assay [2]; in the assay on BGC-823; with Peritoneal macrophage; in the assay with A549) was inactive. Moreover, the IC50 was greater than 100 µM at Liver carboxylesterase 1 and 4.6 µM against Cocaine esterase. For the same compound, the Ratio IC50 in the assay listed under Homo sapiens turned out to be 21.8. Besides, in assay [3], the inhibition result was “inactive”.
